Measured values reported in patent publication US20250243174A1, “ANTITUMORAL COMPOUNDS” (PHARMA MAR, S.A., priority 2021, published 2025).
Where two headings read alike, the source gives them in different places.

Assays:
HGC-27 xenografts = test: Example 6, gastric xenograft model HGC-27; assay type: in vivo; settings: for mean body weight reduction: Day 2, compound 2 2.0, compound 3 1.0, PM060184 16 mg/kg; for TV, median (IQR) / Median survival time: iv Q7dx3; for TV, median (IQR): high dose: PM060184 16, Comp. 2 2, Comp. 3 1 mg/kg; for mean time frame with tumor remission: high dose: compound 2 2.0, compound 3 1.0, PM060184 16 mg/kg, last observed day 63; for animals in complete tumor remission status: highest dose: compound 2 2.0, compound 3 1.0 mg/kg; for antitumor activity compared to PM060184-treated group at 16 mg/kg: once treatments were stopped (days 28, 35), 2 at 2 mg/kg, 3 at 1 mg/kg
Procedure: Female athymic nu/nu mice (Harlan Laboratories Models, S.L. Barcelona, Spain or Envigo, Spain) were utilized for all experiments. Animal were housed in individually ventilated cages Sealsafe® Plus, Techniplast S.P.A.), up to ten per cage on a 12-hour light-dark cycle at 21-23° C. and 40-60% humidity. Mice were allowed free access to irradiated standard rodent diet (Tecklad 2914C) and sterilized water. Animals were acclimated for at least 5 days prior to tumor implantation with a tumor cell suspension.
HGC27 cells were maintained in vitro at 37° C. with 5% CO2 in Iscove's Modified Dulbecco's Medium (Sigma Aldrich, Co). Culture cells were passage every 3 to 5 days on reaching confluence. Each animal was subcutaneously implanted (on the right flank using 26G needle and a 1 cc syringe) at 4-6 weeks of age with 5×10^6 HGC-27 cells suspended in 0.05 mL of a solution consisting of 50% Matrigel® (Corning Incorporated Life Sciences), 50% medium without serum or antibiotics.
All treatments were intravenously administered on a weekly basis at their MTD, ¼ MTD and 1/16 MTD (high, medium and low dose).
Briefly: • 4 to 6 week-old athymic nu/nu female mice were subcutaneously implanted with tumor cells growing in culture. • When tumors reached a certain volume, tumor bearing animals (N=8-10/group) were randomly allocated into treatment groups. • Tumor dimensions and body weights were recorded 2-3 times per week starting from the first day of treatment (Day 0). Treatments producing >20% lethality and/or 20% net body weight loss were considered toxic. Tumor volume was calculated using the equation (a·b^2)/2, where a and b were the longest and shortest diameters, respectively. Animals were euthanized when their tumors reached ca. 2,000 mm^3 and/or severe necrosis was seen. • Median was calculated for tumor volume on each measurement day. • Antitumor effect was assessed comparing tumor volume data from groups following the 1st, 2nd, 3rd study weeks, or more depending on the case, using a two-tailed Mann-Whitney U test. The data are presented as medians and interquartile range (IQR). • Complete tumor regression (CR) was defined when tumor volume<63 mm^3 for 2 or more consecutive measurements. • Treatment tolerability was assessed by monitoring body weight evolution, clinical signs of systemic toxicity as well as evidences of local damage at the injection site.
PM060184 was provided in the form of freeze-dried vials of lyophilized product. Each vial was reconstituted with water for infusion to a concentration of 2.5 mg/mL.
Compounds 2 and 3 were provided in the powder form and were solubilized with hydroxy-propyl-β-cyclodextrin (HPβCD), reaching a concentration of 1 mg/ml or 0.2 mg/ml, respectively. Placebo was provided in the form of lyophilised cake containing 1.2 g of hydroxy-propyl-β-cyclodextrin (HPβCD) which was reconstituted with water for infusion.
In these experiments, compounds 2, 3 and PM060184, as well as placebo, were intravenously administered once per week for 3 consecutive weeks, on Days 0, 7 and 14, whenever it was possible.
The experiment was carried out as previously explained. When tumors reached ca. 165-175 mm^3, tumor bearing animals (N=8/group) were randomly allocated into the following treatment groups:
Treatments were initiated on Day 0.

HT29 = test: SRB colorimetric cytotoxicity assay, HT29; assay type: cell-based; settings: Homo sapiens, read-out: GI50 (M) HT29
Source text: The aim of this assay is to evaluate the in vitro cytostatic (ability to delay or arrest tumor cell growth) or cytotoxic (ability to kill tumor cells) activity of the samples being tested.
A colorimetric assay, using sulforhodamine B (SRB) reaction has been adapted to provide a quantitative measurement of cell growth and viability (using the technique developed by Skehan et al., J. Natl. Cancer Inst. 1990 and following the protocol detailed in V. Vichai and K. Kirtikara (2006) Nature Protoc. 1, 1112-1116.)
This form of assay employs 96-well cell culture microplates. All the cell lines used in this study were obtained from the American Type Culture Collection (ATCC), unless otherwise indicated, and derive from different types of human cancer.
Cells were maintained in Dulbecco's Modified Eagle Medium (DMEM) (for A549, HT-29 and MDA-MB-231) or RPMI (for PSN-1) supplemented with 10% Fetal Bovine Serum (FBS), 2 mM L-glutamine, 100 U/mL penicillin and 100 U/mL streptomycin at 37° C., 5% CO2 and 98% humidity. For the experiments, cells were harvested from subconfluent cultures using trypsinization and resuspended in fresh medium before counting and plating.
Cells were seeded in 96 well microtiter plates, at 5×10^3 cells per well in aliquots of 150 μL, and allowed to attach to the plate surface for 18 hours (overnight) in drug free medium. After that, one control (untreated) plate of each cell line was fixed (as described below) and used for time zero reference value. Culture plates were then treated with test compounds (50 μL aliquots of 4× concentrated compound stock solutions made in complete culture medium) using ten serial dilutions (concentrations ranging from […]) and triplicate cultures (final concentration of DMSO being 1%). After 72 hours treatment, the antitumor effect was measured by using the SRB methodology: Briefly, cells were washed twice with PBS, fixed for 15 min in 1% glutaraldehyde solution at room temperature, rinsed twice in PBS, and stained in 0.4% SRB solution for 30 min at room temperature. Cells were then rinsed several times with 1% acetic acid solution and air-dried at room temperature. SRB was then extracted in 10 mM trizma base solution and the absorbance measured in an automated spectrophotometric plate reader at 490 nm. Effects on cell growth and survival were estimated by applying the NCI algorithm (Boyd M R and Paull K D. Drug Dev. Res. 1995, 34, 91-104).
Using the mean±SD of triplicates, a dose-response curve was automatically generated using nonlinear regression analysis to a 4-parameter logistic curve. Three reference parameters were calculated (NCI algorithm) by automatic interpolation: GI50=compound concentration that produces […] cell growth inhibition, as compared to control cultures.

[1] = high dose: PM060184 16.0, Comp. 2 2.0, Comp. 3 1.0 mg/kg, ud = group not reached mortality
[2] = low dose: PM060184 1.0, Comp. 2 0.125, Comp. 3 0.0625 mg/kg
[3] = medium dose: PM060184 4.0, Comp. 2 0.5, Comp. 3 0.25 mg/kg

## COC1=CC[C@@H]([C@@H](C)/C=C(C)/C=C\C=C/C(=O)N[C@H](C(=O)N/C=C\C[C@H](C/C=C(\C)F)OC(N)=O)C(C)(C)C)OC1=O [Compound 2]
HGC-27 xenografts
  mean body weight reduction: ca. −13.1%
  mean time frame with tumor remission: higher than 29.1 days
  animals in complete tumor remission status: 100%
  antitumor activity compared to PM060184-treated group at 16 mg/kg: big difference, in terms of antitumor activity, statistically significant
HGC-27 xenografts; Day 7
  TV, median (IQR): 313.6 (237.3-482.4) mm3
HGC-27 xenografts; Day 14
  TV, median (IQR): 143.2 (96.1-223.6) mm3
HGC-27 xenografts; Day 21
  TV, median (IQR): 75.0 (51.6-75.0) mm3
HGC-27 xenografts; Day 28
  TV, median (IQR): 42.5 (37.0-63.9) mm3
HGC-27 xenografts; Day 35
  TV, median (IQR): 32.9 (20.4-36.6) mm3
HGC-27 xenografts; [1]
  Median survival time: ud
HGC-27 xenografts; [2]
  Median survival time: 14 days
HGC-27 xenografts; [3]
  Median survival time: 38.5 days
HT29; HT-29, 72 h
  GI50: 1.31e-11 M

## COC1=CC[C@@H]([C@@H](C)/C=C(C)/C=C\C=C/C(=O)N[C@H](C(=O)N/C=C\C[C@H](CC=C(C)C)OC(N)=O)C(C)(C)C)OC1=O [Compound 3]
HGC-27 xenografts
  mean body weight reduction: ca. −13.1%
  mean time frame with tumor remission: higher than 31.5 days
  animals in complete tumor remission status: 100%
  antitumor activity compared to PM060184-treated group at 16 mg/kg: big difference, in terms of antitumor activity, statistically significant
HGC-27 xenografts; Day 7
  TV, median (IQR): 366.0 (300.1-479.8) mm3
HGC-27 xenografts; Day 14
  TV, median (IQR): 177.1 (142.3-256.0) mm3
HGC-27 xenografts; Day 21
  TV, median (IQR): 75.0 (65.6-84.4) mm3
HGC-27 xenografts; Day 28
  TV, median (IQR): 66.7 (38.2-73.7) mm3
HGC-27 xenografts; Day 35
  TV, median (IQR): 27.3 (21.4-41.4) mm3
HGC-27 xenografts; [1]
  Median survival time: ud
HGC-27 xenografts; [2]
  Median survival time: 12 days
HGC-27 xenografts; [3]
  Median survival time: 30 days
HT29; HT-29, 72 h
  GI50: 2.22e-11 M

## C/C=C\C[C@@H](C/C=C\NC(=O)[C@@H](NC(=O)\C=C/C=C\C(C)=C\[C@H](C)[C@@H]1CC=C(OC)C(=O)O1)C(C)(C)C)OC(N)=O [PM060184, reference compound]
HGC-27 xenografts
  mean body weight reduction: ca. −4.1%
  mean time frame with tumor remission: 18 days
HGC-27 xenografts; Day 7
  TV, median (IQR): 250.7 (212.8-433.0) mm3
HGC-27 xenografts; Day 14
  TV, median (IQR): 124.8 (102.8-213.2) mm3
HGC-27 xenografts; Day 21
  TV, median (IQR): 88.5 (68.2-118.3) mm3
HGC-27 xenografts; Day 28
  TV, median (IQR): 114.4 (63.7-155.1) mm3
HGC-27 xenografts; Day 35
  TV, median (IQR): 267.3 (100.4-414.0) mm3
HGC-27 xenografts; PM060184 16 mg/kg (high-dose)
  animals that reached a complete remission (number out of eight): three out of eight
HGC-27 xenografts; [1]
  Median survival time: 56 days
HGC-27 xenografts; [2]
  Median survival time: 15 days
HGC-27 xenografts; [3]
  Median survival time: 27 days
HT29; HT-29, 72 hours treatment, SRB
  GI50: 8.3e-11 M
